Results on two compounds are retold here after US20170119907A1, “Targeted Therapeutics” (MEDIVATION TECHNOLOGIES, INC., priority 2014, published 2017).

Data set [1] deals with partial thickness chondral defects in the medial femoral condyle. The data set is described as follows: Chondral defect model, retention of Compound 4-augmented MSCs (histological cell retention score). It counts as in vivo, sheep. The conditions noted are these: for Cell Retention (average score, n = 5): score 0-2. As to the method: The capacity of ovine MSCs derived from bone marrow and augmented with Compound 4 to bind to lesions in cartilage in vivo was evaluated in a chondral defect model.
Bone marrow aspirate was collected from fifteen healthy nave female sheep and processed in vitro to attain a population of mesenchymal stem cells (MSCs) for each sheep created by expansion of adherent cells. MSCs were frozen at passage 1 (P1).
Two circular partial thickness chondral defects were surgically created bilaterally in the medial femoral condyle of each sheep, thereby creating four defects per sheep. Once the medial femoral condyle was surgically exposed, two partial thickness circular defects were created in the cartilage of the anterior aspect, separated by 2-3 mm. Each defect was created by penetrating the cartilage with a 7 mm diameter biopsy punch to delineate the margins followed by removal of cartilage within the defect margin with a scalpel to a depth of approximately 0.5 mm-0.8 mm without penetrating the surface of the calcified cartilage. Within the same animal, each defect received one of four experimental treatments: • a. D1: Empty Control: defect left unfilled; • b. D2: Vehicle Control: cells incubated in PBS delivered to the defect; • c. D3: 100 μM Compound 4 incubated in defect followed by delivery of cells to the defect; and • d. D4: Cells were incubated with 10 μM Compound 4 for 30 min and together they were delivered to defect.
Sheep were divided into three groups of 5 sheep. One group was sacrificed on day 1 after surgery, the second group was sacrificed on day 7, and the third group was sacrificed on day 14 after surgery.
The complete intact joint was harvested and transported to the laboratory. The joint was exposed, and defects were scored macroscopically prior to separating out bone blocks containing the defects with a band saw. Defects were further trimmed and individually separated using a fine ISOMET® saw prior to fixation in 10% neutral buffered formalin. Tissue was further trimmed for histological processing, fixed, and decalcified for at least one week.
As each sample completed decalcification, it was transferred to 40% EtOH until all samples were decalcified and the last sample had been in 40% EtOH for at least 24 hours.
Following decalcification, specimens were prepared for histology staining with safranin-orange, fast green and haematoxylin-eosin.
Histological Assessment of Compound 4-Augmented Cell Retention
Histological slides were stained with Haematoxylin & Eosin and Safranin Orange for evaluation of cell retention and the early stages of cartilage repair. Cell retention was assessed using the following scoring system: […]

Data set [2] deals with human MSCs. The data set is described as follows: Human MSC proliferation, CELLTITER GLO assay (ATP levels). It is filed as cell-based. The conditions noted are these: 24 h, various concentrations, compared with untreated cells; FIG. 3A. As to the method: This example reports the effects of 24 hour treatment with Compound 4 on viability and proliferation of human MSCs.
Cell proliferation was measured using the CELLTITER GLO® assay (Promega), which measures ATP levels. Cells (5×10^5) were incubated with various concentrations of Compound 4 for 24 h. Proliferation was compared to that of untreated cells. Proliferation values for 24 h were normalized to time=0 and compared with values for untreated cells.
In general terms: Cellular ATP, detected with luciferase, serves as a proxy for viable cell number.

Data set [3] has as its system articular cartilage degeneration (MIA model). The data set is described as follows: Monosodium iodoacetate (MIA) model of articular cartilage degeneration, compound-incubated hMSCs. It counts as in vivo, Sprague Dawley rats. As to conditions: rat MIA 3 mg intra-articular; 4×10^5 hMSCs incubated in 10 μM compound injected day 7; evaluated day 28; FIG. 7. As to the method:
6 to 8 week old Sprague Dawley rats were anesthetized with 3% sevofluorane and injected in both the right and left knee intra-articularly with MIA (monosodium iodoacetate, Sigma Cat No I2512) at a dose of 3 mg in a volume of 50 pt. MIA was dissolved in sterile saline (0.9%). hMSCs (Lonza, Cat No PT-2501) were cultured in complete MSCCM™ mesenchymal stem cell culture medium (Lonza, Cat No PT-3238).
Seven days after the injection of MIA, 2-10 million hMSCs were collected and incubated for 20 min in 500 μL of 10 μM Compound 20 in PBS or in PBS alone (untreated). Cells were washed with PBS and counted.
Rats were again anesthetized with 3% sevofluorane. 4×10^5 hMSCs incubated in PBS or in Compound 20 were injected intraarticularly through the patellar ligament. Untreated hMSC were injected into the left knee joint, and Compound 20-stained hMSCs were injected into the right knee joint.
Twenty eight days after the injection of MIA, rats were euthanized, and femoral condyles were extracted for macroscopic evaluation.

In the case of `Cc1cc2nc3cc(C)c(NCCCCCCCCNc4cc5c(cc4C)nc4cc(C)c(N)cc4[n+]5-c4ccccc4)cc3[n+](-c3ccccc3)c2cc1N.[Cl-].[Cl-]` [Compound 4, 7,7′-(octane-1,8-diylbis(azanediyl))bis(3-amino-2,8-dimethyl-5-phenylphenazin-5-ium) chloride], the “Cell Retention (average score, n = 5)” value in data set [1] (D3: 100 μM incubated in defect followed by delivery of cells, Day 1) worked out at 0.75; in data set [1] (D3: 100 μM incubated in defect followed by delivery of cells, Day 7), 0.75; in data set [1] (D3: 100 μM incubated in defect followed by delivery of cells, Day 14), 1.2; in data set [1] (D4: cells pre-incubated with 10 μM for 30 min, then delivered to defect, Day 1) it was 0.4; in data set [1] (D4: cells pre-incubated with 10 μM for 30 min, then delivered to defect, Day 7) it was 1.0; in data set [1] (D4: cells pre-incubated with 10 μM for 30 min, then delivered to defect, Day 14), 1.25. Moreover, the “MSC retention (in words)” value in data set [1] (sheep chondral defect model, summary of Table B9) was “promotes MSC retention”. The “Effect on human MSC proliferation” value in data set [2] was “does not affect human MSC proliferation”.

As for `Cc1cc2nc3cc(C)c(NCCCCCCNC(=O)c4ccc(-c5ccc(C(=O)NCCCCCCNc6cc7c(cc6C)nc6cc(C)c(N)cc6[n+]7-c6ccccc6)cc5)cc4)cc3[n+](-c3ccccc3)c2cc1N.[Cl-].[Cl-]` [Compound 20, (3-amino-7-{[6-({4-[4-({6-[(7-amino-5-chloranuide-2,8-dimethyl-5-phenyl-5λ^6,10-phenazin-5-ylium-3-yl)amino]hexyl}carbamoyl)phenyl]phenyl}formamido)hexyl]amino}-2,8-dimethyl-5-phenyl-5λ^6,10-phenazin-5-ylium-5-e)chloranuide], the “Macroscopic evaluation of femoral condyle cartilage” value in data set [3] was “an improvement in the cartilage and surrounding bone area”.
